{"source": "patent US7678390B2", "about": "“Carbon monoxide as a biomarker and therapeutic agent” (priority 1999, dated 2010)", "system": "rats exposed to hyperoxia (>98% O2)", "test": "Survival of rats in lethal hyperoxia in the presence of CO", "assay_type": "in vivo, rat", "conditions": "for % Survival 72 h / % Survival 100 h: hyperoxia (>98%)", "from_the_text": "Pathogen-free male Sprague-Dawley rats (250-300 g) were purchased from Harlan Sprague-Dawley (Indianapolis, Ind.) and allowed to acclimate upon arrival for 7 days prior to experimentation. Animals were fed rodent chow and water ad libitum. All experimental protocols were approved by the Animal Care and Use Committee.\nAnimals were exposed to >98% O2 or 98% O2+CO mixtures at a flow rate of 12 liters/min in a 3.70-cubic-foot glass exposure chamber. Animals were supplied food and water during the exposures. CO at a concentration of 1% (10,000 ppm) in compressed air was mixed with >98% O2 in a stainless steel mixing cylinder prior to entering the exposure chamber. By varying the flow rates of CO into the mixing cylinder, concentrations delivered to the exposure chamber were controlled. Because the flow rate was primarily determined by the O2 flow, only the CO flow was changed to generate the different concentrations delivered to the exposure chamber. A carbon monoxide analyzer (Interscan Corporation, Chatsworth, Calif.) was used to measure CO levels continuously in the chamber. Gas samples were taken by the analyzer through a port in the top of the exposure chamber at a rate of 1 liter/min and analyzed by electrochemical detection with a sensitivity of 10 ppm to 600 ppm. CO levels in the chamber were recorded at hourly intervals and there were no changes in chamber CO concentrations once the chamber had equilibrated. O2 concentrations in the chamber were determined using a gas spectrometer.\nWe used clinically relevant in vivo models of oxidative stress to test the hypothesis that CO mediates the protective effects of HO-1 against oxidative stress. Hyperoxia when administered to animals produces pathophysiologic changes similar to those seen in human adult respiratory distress syndrome (ARDS) (Lee, et al., Am. J. Resp Cell Mol Biol. 14: 556-568; and Clerch, and Massaro, J. Clin. Invest. 91: 499-1508). […] These rats will uniformly die by 72 h of continuous hyperoxic exposure (Lee, et al. and Clerch, supra). In this study, one group of rats were placed in hyperoxia (>98% oxygen O2) alone while the second group of rats were placed in an identical chamber and exposed to the same levels of hyperoxia in the presence of a low concentration of CO (250 ppm). […] We observed concentration dependent protection against hyperoxia at both 72 and 100 h of hyperoxia exposure (Table 1). (P-value for the association between survival and CO concentration is 0.001 by logistic regression). Carboxyhemoglobin levels, a standard measurement of CO levels in the blood, correlated with increasing concentrations of CO exposure and survival of animals to lethal hyperoxia (Table 1, below).", "data": [{"smiles": "[C-]#[O+]", "note": "[CO, carbon monoxide]", "values": [{"measurement": "survival in hyperoxia", "setting": "hyperoxia (>98% O2), CO 250 ppm, 72 h", "value": "all animals were alive at the 72 h time point"}, {"measurement": "% Survival 72 h", "setting": "CO 50 ppm, 72 h", "value": 33, "unit": "%"}, {"measurement": "% Survival 100 h", "setting": "CO 50 ppm", "value": 0, "unit": "%"}, {"measurement": "% Survival 72 h", "setting": "CO 100 ppm, 72 h", "value": 50, "unit": "%"}, {"measurement": "% Survival 100 h", "setting": "CO 100 ppm", "value": 50, "unit": "%"}, {"measurement": "% Survival 72 h", "setting": "CO 250 ppm, 72 h", "value": 100, "unit": "%"}, {"measurement": "% Survival 100 h", "setting": "CO 250 ppm", "value": 80, "unit": "%"}, {"measurement": "% Survival 72 h", "setting": "CO 500 ppm, 72 h", "value": 100, "unit": "%"}, {"measurement": "% Survival 100 h", "setting": "CO 500 ppm", "value": 80, "unit": "%"}]}]}
